The record followed here is the supplement of paper PMC11616607.

One test concerns COV318. The experiment in a line: drug sensitivity score (DSS) from 5-point dose-response viability curve (DSS (area-under-curve based score)); higher = more sensitive (stronger growth inhibition or killing); extreme values may be limits of the assay. The conditions noted are these: exposure time: 72 h; concentration range: 5 concentrations over 10,000-fold range. In a few lines:
(§1)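 For the drug sensitivity score, obtained per cell line and drug in Breeze software, larger values mean greater sensitivity. No response corresponds to a score of zero. Ovarian cancer and normal ovarian cells were seeded at 1,500 per well into 384-well plates already holding acoustically dispensed drugs (Echo 550, DMSO or water, five concentrations over a 10,000-fold range) and incubated 3 days at 37°C, 5% CO2. CellTiter-Glo luminescence on a PHERAstar FS gave the viability readout.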
`CCOc1ccn(-c2ccc(F)cc2)c(=O)c1C(=O)Nc1ccc(Oc2ccnc(N)c2Cl)c(F)c1` registered a drug sensitivity score of 0.
As to `CCn1c(C(=O)N(C2CC2)C2CC2)cc2c3c(ncn3C)c(Nc3cc(C)n(C)n3)nc21`, the drug sensitivity score amounted to 0.4.
On the same count and under the same terms, the result for `C[C@@]1(C(=O)Nc2ccc(F)nc2)CCCN1c1nc(Nc2cc(C3CC3)n[nH]2)c2cccn2n1` reads 3.1; that for `Cc1c(-c2ccc(N3CCc4cccc(C(=O)Nc5nc6ccccc6s5)c4C3)nc2C(=O)O)cnn1CC12CC3CC(CC(C3)C1)C2`, 0.
`Cc1nn(C)c(COc2ccc(N3CCN(S(=O)(=O)N(C)C)CC3)cc2)c1-c1cccc2c(CCCOc3cccc4ccccc34)c(C(=O)O)n(CCN3CCOCC3)c12`: the drug sensitivity score was 5.4.
Same read-out and setting: the result for `O=c1[nH]c(C2CCCN2)nc2c1oc1ccc(Cl)cc12` (stereo unspecified) reads 0; that for `COc1ccc(C[C@H](NC(=O)[C@H](C)NC(=O)CN2CCOCC2)C(=O)N[C@@H](Cc2ccccc2)C(=O)C2(C)CO2)cc1` (stereo in doubt) [ONX-0914], 12.3.
Same read-out and setting: the result for `CC/C(=C(\c1ccc(O)cc1)c1ccc(OCCN(C)C)cc1)c1ccccc1` [4-hydroxytamoxifen] reads 5.5; that for `Nc1ncnc2c1nc(N)n2[C@@H]1O[C@H](CO)[C@@H](O)[C@H]1O` [8-amino-adenosine], 15.1; that for `Nc1ncnc2c1nc(Cl)n2[C@@H]1O[C@H](CO)[C@@H](O)[C@H]1O` [8-chloro-adenosine], 3.7.
Still for that read-out and setting: the result for `COc1cc2c(cc1OCCCN1CCCC1)N=C(N)C21CCC1` [A-366] reads 0; that for `COc1ccc(S(=O)(=O)Nc2cccnc2Nc2ccc(O)cc2)cc1` [ABT-751], 7.2; that for `C[C@H](Nc1ncnc2[nH]cnc12)c1cc2ccc(F)cc2nc1-c1ccccn1` [AMG319], 0.1.
`COCCOc1cnc2ccn([C@H](C)c3nnc4c(F)cc(-c5cnn(C)c5)cn34)c(=O)c2c1` [AMG-337]: the drug sensitivity score amounted to 0.
Consider `CC1CCC(n2c3cnccc3c3cnc(Nc4ccc5c(n4)CCN(C(=O)CO)C5)nc32)CC1` (stereo unspecified) [AMG-925], for which the drug sensitivity score amounted to 0.
On the same count and under the same terms, the result for `CC(C)[C@H](C(=O)Nc1ccc(C(=O)NO)cc1)c1ccccc1` [AR-42] reads 7.5; that for `Cc1sc2c(c1C)C(c1ccc(Cl)cc1)=N[C@@H](CC(=O)Nc1ccc(OCCOCCOCCOCCNc3cccc4c3C(=O)N(C3CCC(=O)NC3=O)C4=O)cc1)c1nnc(C)n1-2` (stereo partly specified) [ARV-825], 5.2.
On the same count and under the same terms, the result for `COc1cc(N2CCC(N3CCN(C)CC3)CC2)ccc1Nc1ncnc(Nc2ccccc2S(=O)(=O)C(C)C)n1` [ASP3026] reads 2.9; that for `O=C(NC1CCNCC1)c1n[nH]cc1NC(=O)c1c(Cl)cccc1Cl` [AT7519], 6.2; that for `O=C(Nc1c[nH]nc1-c1nc2ccc(CN3CCOCC3)cc2[nH]1)NC1CC1` [AT9283], 1.1.
Still for that read-out and setting: the result for `CC[C@H](CC#N)OC(=O)N[C@@H](C)c1cccc(NC(=O)Nc2ccc(-c3cnco3)c(OC)c2)c1` [AVN944] reads 9.4.
Regarding `COc1cc(N2CCN(C)CC2)ccc1Nc1nccc(-c2cn(C)c3cnccc23)n1` [AZ191], the drug sensitivity score is 4.1.
As to `COc1cc(OC2CCN(C)CC2)ccc1Nc1ncc2c(n1)n(C1CCCC1)c(=O)n2C` [AZ 3146], the drug sensitivity score was 2.7.
`CN(C)CCCOc1ccc(-c2ccc3ncc4c(c3c2)n(C2CCOCC2)c(=O)n4C)cn1` [AZD0156] showed a drug sensitivity score of 0.
`N[C@@H]1CCCN(c2c(/C=C3\SC(=O)NC3=O)cccc2-c2ccccc2)C1` [AZD1208] registered a drug sensitivity score of 1.1.
On the same count and under the same terms, to `Cc1cc(Nc2nc(N[C@@H](C)c3ncc(F)cn3)ncc2Cl)[nH]n1` [AZD1480] belongs 0; to `COc1cc2ncnc(Nc3cccc(Cl)c3F)c2cc1OC(=O)N1CCN(C)C[C@H]1C` [AZD3759], 0.
On to `Cc1[nH]nc(C(F)(F)F)c1Cc1sc2c(c1C(=O)N1C[C@](C)(O)CO1)c(=O)n(C)c(=O)n2C(C)C` [AZD3965], for which the drug sensitivity score was determined as 0.
In the case of `COc1cc(CCc2cc(NC(=O)c3ccc(N4CC(C)NC(C)C4)cc3)n[nH]2)cc(OC)c1` (stereo unspecified) [AZD4547], the drug sensitivity score was 0.
On the same count and under the same terms, the result for `CN(C)C(=O)c1ccc(S(=O)(=O)c2ccc(NC(=O)[C@@](C)(O)C(F)(F)F)c(Cl)c2)cc1` [AZD7545] reads 0.
On the same count and under the same terms, to `NC(=O)Nc1cc(-c2cccc(F)c2)sc1C(=O)N[C@H]1CCCNC1` [AZD7762] belongs 5.

A further test deals with OVCAR5. The description is as above. The conditions noted are these: exposure time: 72 h; concentration range: 5 concentrations over 10,000-fold range. In a few lines:
as §1
With `CCOc1ccn(-c2ccc(F)cc2)c(=O)c1C(=O)Nc1ccc(Oc2ccnc(N)c2Cl)c(F)c1`, the drug sensitivity score was 0.
The compound `CCn1c(C(=O)N(C2CC2)C2CC2)cc2c3c(ncn3C)c(Nc3cc(C)n(C)n3)nc21` came in with a drug sensitivity score of 0.
Take `C[C@@]1(C(=O)Nc2ccc(F)nc2)CCCN1c1nc(Nc2cc(C3CC3)n[nH]2)c2cccn2n1`: the drug sensitivity score amounted to 14.4.
The same measure, in the same setting: to `Cc1c(-c2ccc(N3CCc4cccc(C(=O)Nc5nc6ccccc6s5)c4C3)nc2C(=O)O)cnn1CC12CC3CC(CC(C3)C1)C2` belongs 1; to `Cc1nn(C)c(COc2ccc(N3CCN(S(=O)(=O)N(C)C)CC3)cc2)c1-c1cccc2c(CCCOc3cccc4ccccc34)c(C(=O)O)n(CCN3CCOCC3)c12`, 5.2; to `O=c1[nH]c(C2CCCN2)nc2c1oc1ccc(Cl)cc12` (stereo unspecified), 4.
Still for that read-out and setting: the result for `COc1ccc(C[C@H](NC(=O)[C@H](C)NC(=O)CN2CCOCC2)C(=O)N[C@@H](Cc2ccccc2)C(=O)C2(C)CO2)cc1` (stereo in doubt) [ONX-0914] reads 18.2.
Regarding `CC/C(=C(\c1ccc(O)cc1)c1ccc(OCCN(C)C)cc1)c1ccccc1` [4-hydroxytamoxifen], the drug sensitivity score is 5.9.
`Nc1ncnc2c1nc(N)n2[C@@H]1O[C@H](CO)[C@@H](O)[C@H]1O` [8-amino-adenosine] showed a drug sensitivity score of 23.5.
The same measure, in the same setting: to `Nc1ncnc2c1nc(Cl)n2[C@@H]1O[C@H](CO)[C@@H](O)[C@H]1O` [8-chloro-adenosine] belongs 11.9.
In the case of `COc1cc2c(cc1OCCCN1CCCC1)N=C(N)C21CCC1` [A-366], the drug sensitivity score turned out to be 0.4.
`COc1ccc(S(=O)(=O)Nc2cccnc2Nc2ccc(O)cc2)cc1` [ABT-751] gave a drug sensitivity score of 10.3.
For `C[C@H](Nc1ncnc2[nH]cnc12)c1cc2ccc(F)cc2nc1-c1ccccn1` [AMG319], the drug sensitivity score amounted to 0.
Take `COCCOc1cnc2ccn([C@H](C)c3nnc4c(F)cc(-c5cnn(C)c5)cn34)c(=O)c2c1` [AMG-337]: the drug sensitivity score stood at 0.
On the same count and under the same terms, to `CC1CCC(n2c3cnccc3c3cnc(Nc4ccc5c(n4)CCN(C(=O)CO)C5)nc32)CC1` (stereo unspecified) [AMG-925] belongs 2.5.
